In patent US20250325552A1, “SUBSTITUTED THIADIAZOLYL DERIVATIVES AS DNA POLYMERASE THETA INHIBITORS” (IDEAYA Biosciences, Inc., priority 2020, published 2025):

What follows are compounds tested against Polθ theta (1-899) (hPolQ) (Homo sapiens (Human), UniProt O75417) (assay: Biological Assay 1: Polθ ATPase activity, NADH oxidation-coupled enzymatic assay (10 nM enzyme, 30 min)). Conditions: Polθ (1-899) 10 nM, 100 μM ATP, 300 nM dT50 ssDNA; Examples 1 to 268; read-out: ATPase NADH coupling:Standard Screening:hPolQ IC50.
Type: biochemical
Method: The ability of the compounds of Formula (I), (II), (III), (IV), or Table 1 (Examples 1 to Example 268) to inhibit ATPase activity of Polθ theta (1-899) was determined using the assay described below.
Polθ Theta ATPase activity was determined by measuring the rate of ATP turn over in a NADH oxidation-coupled enzymatic assay. 10-point dilution series of compounds were used in a 384 well format for the inhibition assays. Polθ theta (1-899) (10 nM) in assay buffer (20 mM Tris HCl (pH 7.80), 80 mM KCl, 10 mM MgCl2, 1 mM DTT, 0.01% BSA, 0.01% Tween, 5% glycerol) was transferred to the test wells (20 μL), except the low control wells (20 μL of assay buffer was added to the low control wells). The plate was then incubated at room temperature for 15 min. An equal volume (20 μL) of 100 μM ATP, 300 nM dT50 (single-stranded DNA (ssDNA) containing 50 thymine bases), 300 μM NADH, 6 mM PEP, 10 U/mL lactate dehydrogenase and U/mL pyruvate kinase in assay buffer was added to all the test wells. The plate was then centrifuged at 1000 rpm for 1 min. The reaction was monitored for 30 min by measuring absorbance (λ=340 nm) in a Tecan Spark multimode plate reader every minute. The high control (DMSO with enzyme) with low absorbance intensity represents no inhibition of ATPase reaction while the low control (DMSO with buffer) with high absorbance intensity represents full inhibition of ATPase activity. Slope of the reaction progress curves were used to calculate the rate of ATP hydrolysis. The rates were used to determine the percent inhibition using a four-parameter inhibition model to generate IC50, Hill slope and max inhibition.

Polθ theta (1-899) (hPolQ), sequence (O75417 1-899): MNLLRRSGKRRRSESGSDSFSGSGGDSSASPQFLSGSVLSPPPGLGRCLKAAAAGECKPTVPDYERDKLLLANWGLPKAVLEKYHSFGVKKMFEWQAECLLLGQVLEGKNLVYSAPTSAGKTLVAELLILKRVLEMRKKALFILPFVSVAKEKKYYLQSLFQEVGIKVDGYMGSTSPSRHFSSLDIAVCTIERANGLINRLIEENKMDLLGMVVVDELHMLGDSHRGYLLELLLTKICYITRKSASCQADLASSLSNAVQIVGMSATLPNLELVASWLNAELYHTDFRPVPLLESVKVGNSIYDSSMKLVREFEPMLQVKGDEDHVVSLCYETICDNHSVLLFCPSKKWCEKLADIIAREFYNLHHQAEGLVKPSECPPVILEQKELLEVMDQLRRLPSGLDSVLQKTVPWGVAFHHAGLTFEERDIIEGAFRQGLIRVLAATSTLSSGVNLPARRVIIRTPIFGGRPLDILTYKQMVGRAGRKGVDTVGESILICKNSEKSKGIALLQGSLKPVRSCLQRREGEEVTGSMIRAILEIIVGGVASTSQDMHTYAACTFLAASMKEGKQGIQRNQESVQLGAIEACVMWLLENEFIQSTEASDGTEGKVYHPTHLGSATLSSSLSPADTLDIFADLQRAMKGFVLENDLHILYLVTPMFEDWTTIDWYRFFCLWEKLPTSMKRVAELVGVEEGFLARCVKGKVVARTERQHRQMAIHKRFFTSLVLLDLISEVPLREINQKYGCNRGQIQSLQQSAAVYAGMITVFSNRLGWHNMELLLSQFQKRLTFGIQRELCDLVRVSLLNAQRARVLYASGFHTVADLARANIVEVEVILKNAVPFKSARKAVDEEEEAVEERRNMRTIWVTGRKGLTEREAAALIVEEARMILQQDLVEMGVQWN

| Compound | IC50 [nM] |
| --- | --- |
| COc1ccc(Cl)cc1-c1cc(C)ncc1C(=O)Nc1nnc(OCc2ccc(C(C)(C)O)cn2)s1 [Example 96, 4-(5-chloro-2-methoxyphenyl)-N-(5-((5-(2-hydroxypropan-2-yl)pyridin-2-yl)methoxy)-1,3,4-thiadiazol-2-yl)-6-methylnicotinamide] | ≤ 200 |
| COc1ccc(Cl)cc1-c1cc(C)ncc1C(=O)Nc1nnc(OCc2ccc([S@@](C)(=N)=O)cn2)s1 [Example 148, (S)-4-(5-chloro-2-methoxyphenyl)-6-methyl-N-(5-((5-(S-methylsulfonimidoyl)pyridin-2-yl)methoxy)-1,3,4-thiadiazol-2-yl)nicotinamide] | ≤ 200 |
| COc1cnc(C)cc1-c1cc(C)ncc1C(=O)Nc1nnc(OCC23CC(O)(C2)C3)s1 [Example 98, N-(5-((3-hydroxybicyclo(1.1.1)pentan-1-yl)methoxy)-1,3,4-thiadiazol-2-yl)-5′-methoxy-2′,6-dimethyl-(4,4′-bipyridine)-3-carboxamide] | ≤ 200 |
| COc1cnc(Cl)cc1-c1cc(C)ncc1C(=O)Nc1nnc(OCC2CCN(C)C2)s1 (stereo not drawn) [Example 176, 2′-chloro-5′-methoxy-6-methyl-N-(5-((1-methylpyrrolidin-3-yl)methoxy)-1,3,4-thiadiazol-2-yl)-(4,4′-bipyridine)-3-carboxamide] | 200 to 500 |
| COc1cccc(F)c1-c1cnncc1C(=O)Nc1nnc(OCc2ccc(C(C)(C)O)cn2)s1 [Example 81, 5-(2-fluoro-6-methoxyphenyl)-N-(5-((5-(2-hydroxypropan-2-yl)pyridin-2-yl)methoxy)-1,3,4-thiadiazol-2-yl)pyridazine-4-carboxamide] | ≤ 200 |
| COc1cnc(Cl)c(F)c1-c1cc(C)ncc1C(=O)Nc1nnc(OC[C@H]2COCCO2)s1 [Example 240, N-(5-(((R)-1,4-dioxan-2-yl)methoxy)-1,3,4-thiadiazol-2-yl)-2′-chloro-3′-fluoro-5′-methoxy-6-methyl-(4,4′-bipyridine)-3-carboxamide] | ≤ 200 |
| COc1cnc(Cl)cc1-c1cc(C)ncc1C(=O)Nc1nnc(OCC23CC(C(C)(C)F)(C2)C3)s1 [Example 163, 2′-chloro-N-(5-((3-(2-fluoropropan-2-yl)bicyclo(1.1.1)pentan-1-yl)methoxy)-1,3,4-thiadiazol-2-yl)-5′-methoxy-6-methyl-(4,4′-bipyridine)-3-carboxamide] | ≤ 200 |
| COc1cnc(C)cc1-c1cc(C)ncc1C(=O)Nc1nnc(OC[C@H]2CC[C@H](O)CC2)s1 [Example 100, N-(5-(((1r,4r)-4-hydroxycyclohexyl)methoxy)-1,3,4-thiadiazol-2-yl)-5′-methoxy-2′,6-dimethyl-[4,4′-bipyridine]-3-carboxamide] | ≤ 200 |
| COc1cnc(Cl)cc1-c1cc(C)ncc1C(=O)Nc1nnc(OC[C@H]2CO[C@H](C)C2)s1 (single isomer, unassigned) [Example 252] | ≤ 200 |
| COc1cnc(Cl)cc1-c1cc(C)ncc1C(=O)Nc1nnc(OC[C@H]2CCOC2(C)C)s1 (single isomer, unassigned) [Example 190] | ≤ 200 |
| COc1cccc(F)c1-c1cc(C)ncc1C(=O)Nc1nnc(OCc2ccc(OC(F)F)cn2)s1 [Example 49, N-(5-((5-(difluoromethoxy)pyridin-2-yl)methoxy)-1,3,4-thiadiazol-2-yl)-4-(2-fluoro-6-methoxyphenyl)-6-methylnicotinamide] | ≤ 200 |
| COc1c(C#N)cccc1-c1cc(C)ncc1C(=O)Nc1nnc(OCc2ccc(Cl)cn2)s1 [Example 21, N-(5-((5-chloropyridin-2-yl)methoxy)-1,3,4-thiadiazol-2-yl)-4-(3-cyano-2-methoxyphenyl)-6-methylnicotinamide] | ≤ 200 |
| COc1cnc(Cl)cc1-c1cc(C)ncc1C(=O)Nc1nnc(OCC2CCNC2)s1 (racemic) [Example 175, 2′-chloro-5′-methoxy-6-methyl-N-(5-(pyrrolidin-3-ylmethoxy)-1,3,4-thiadiazol-2-yl)-(4,4′-bipyridine)-3-carboxamide] | ≤ 200 |
| COc1cnc(Br)cc1-c1cc(C)ncc1C(=O)Nc1nnc(OCC2CCOC2)s1 (racemic) [Example 260, 2′-bromo-5′-methoxy-6-methyl-N-(5-((tetrahydrofuran-3-yl)methoxy)-1,3,4-thiadiazol-2-yl)-(4,4′-bipyridine)-3-carboxamide] | ≤ 200 |
| COc1cccc(F)c1-c1cc(C)ncc1C(=O)Nc1nnc(OCc2ccc([C@@H](C)OC)cn2)s1 [Example 94, 4-(2-fluoro-6-methoxyphenyl)-N-(5-((5-((R)-1-methoxyethyl)pyridin-2-yl)methoxy)-1,3,4-thiadiazol-2-yl)-6-methylnicotinamide] | ≤ 200 |
| COc1cccc(F)c1-c1cc(C)ncc1C(=O)Nc1nnc(OCc2ccc([S@@](C)(=N)=O)cc2)s1 [Example 115, 4-(2-fluoro-6-methoxyphenyl)-6-methyl-N-(5-((4-((S)—S-methylsulfonimidoyl)benzyl)oxy)-1,3,4-thiadiazol-2-yl)nicotinamide] | ≤ 200 |
| COc1ccc(Cl)cc1-c1cnncc1C(=O)Nc1nnc(OCC23CCC(O)(CC2)CC3)s1 [Example 121, 5-(5-chloro-2-methoxyphenyl)-N-(5-((4-hydroxybicyclo(2.2.2)octan-1-yl)methoxy)-1,3,4-thiadiazol-2-yl)pyridazine-4-carboxamide] | 200 to 500 |
| COc1cccc(F)c1-c1cc(C)ncc1C(=O)Nc1nnc(OCc2ccc([S@](C)(=N)=O)cn2)s1 [Example 149, 4-(2-fluoro-6-methoxyphenyl)-6-methyl-N-(5-((5-((R)—S-methylsulfonimidoyl)pyridin-2-yl)methoxy)-1,3,4-thiadiazol-2-yl)nicotinamide] | ≤ 200 |
| COc1cnc(Cl)cc1-c1cc(C)ncc1C(=O)Nc1nnc(OC[C@H]2CO[C@@H](C)C2)s1 (single isomer, unassigned) [Example 251] | ≤ 200 |
| Cc1cc(-c2cc(Cl)ncc2OC(F)F)c(C(=O)Nc2nnc(OC[C@@H]3CCOC3)s2)cn1 (single isomer, unassigned) [Example 258] | ≤ 200 |
| COc1cnc(Cl)cc1-c1cc(C)ncc1C(=O)Nc1nnc(OCC23CCC(O)(CC2)C3)s1 [Example 218, 2′-chloro-N-(5-((4-hydroxybicyclo(2.2.1)heptan-1-yl)methoxy)-1,3,4-thiadiazol-2-yl)-5′-methoxy-6-methyl-(4,4′-bipyridine)-3-carboxamide] | ≤ 200 |
| COc1cccc(F)c1-c1cc(C)ncc1C(=O)Nc1nnc(OCc2ccc3c(n2)CCC[C@H]3O)s1 [Example 117, 4-(2-fluoro-6-methoxyphenyl)-N-(5-(((R)-5-hydroxy-5,6,7,8-tetrahydroquinolin-2-yl)methoxy)-1,3,4-thiadiazol-2-yl)-6-methylnicotinamide] | ≤ 200 |
| COc1cc(CO)ccc1-c1cc(C)ncc1C(=O)Nc1nnc(OCc2ccc(Cl)cn2)s1 [Example 31, N-(5-((5-chloropyridin-2-yl)methoxy)-1,3,4-thiadiazol-2-yl)-4-(4-(hydroxymethyl)-2-methoxyphenyl)-6-methylnicotinamide] | 200 to 500 |
| COc1cnc(Cl)cc1-c1cc(C)ncc1C(=O)Nc1nnc(OCc2ccc(OC(F)F)cn2)s1 [Example 113, 2′-chloro-N-(5-((5-(difluoromethoxy)pyridin-2-yl)methoxy)-1,3,4-thiadiazol-2-yl)-5′-methoxy-6-methyl-(4,4′-bipyridine)-3-carboxamide] | ≤ 200 |
| COc1cnc(Cl)cc1-c1cc(C)ncc1C(=O)Nc1nnc(OC[C@@H]2CCO2)s1 (single isomer, unassigned) [Example 169] | ≤ 200 |
| COc1cccc(F)c1-c1cc(C)ncc1C(=O)Nc1nnc(OCc2cnc(CO)cn2)s1 [Example 97, 4-(2-fluoro-6-methoxyphenyl)-N-(5-((5-(hydroxymethyl)pyrazin-2-yl)methoxy)-1,3,4-thiadiazol-2-yl)-6-methylnicotinamide] | ≤ 200 |
| COc1ccccc1-c1cc(C)ncc1C(=O)Nc1nnc(OC[C@H](O)c2ccc(Cl)cn2)s1 [Example 27, (R)—N-(5-(2-(5-chloropyridin-2-yl)-2-hydroxyethoxy)-1,3,4-thiadiazol-2-yl)-4-(2-methoxyphenyl)-6-methylnicotinamide] | 200 to 500 |
| COc1cccc(F)c1-c1cc(C)ncc1C(=O)Nc1nnc(OC[C@H]2CC[C@H](O)CC2)s1 [Example 104, 4-(2-fluoro-6-methoxyphenyl)-N-(5-(((1r,4r)-4-hydroxycyclohexyl)methoxy)-1,3,4-thiadiazol-2-yl)-6-methylnicotinamide] | ≤ 200 |
| COc1cccc(F)c1-c1cc(C)ncc1C(=O)Nc1nnc(OCc2cc(CO)ccn2)s1 [Example 72, 4-(2-fluoro-6-methoxyphenyl)-N-(5-((4-(hydroxymethyl)pyridin-2-yl)methoxy)-1,3,4-thiadiazol-2-yl)-6-methylnicotinamide] | ≤ 200 |
| Cc1cc(-c2cc(CO)ccc2F)c(C(=O)Nc2nnc(OCc3ccc(Cl)cn3)s2)cn1 [Example 23, N-(5-((5-chloropyridin-2-yl)methoxy)-1,3,4-thiadiazol-2-yl)-4-(2-fluoro-5-(hydroxymethyl)phenyl)-6-methylnicotinamide] | ≤ 200 |
